According to PMC6154633, “In Vitro Anticancer Activity and Structural Characterization of Ubiquinones from Antrodia cinnamomea Mycelium” (Molecules : A Journal of Synthetic Chemistry and Natural …, 2017):

How the values were obtained:
MDCK cells = experiment: Cytotoxicity, cell counting kit-8 assay, MDCK normal cell line; format: cell-based; conditions: Canis lupus familiaris, non-malignant cell line, 24 h treatment, mean n = 3
Method: (§1) Three human cancer cell lines (A549, HepG2 and PC3) and normal cell line (MDCK) were obtained from the ATCC (Manassas, VA, USA) and grown on Eagle’s minimum essential medium (EMEM, GIBCO, Waltham, MA, USA) supplemented with F12 medium containing 10% FBS, 100 IU/mL penicillin and 100 μg/mL streptomycin [17].
(§2) Viability of the human cancer cell lines and normal cell line treated with different concentrations of A. cinnamomea extracts, subfractions, and isolates was evaluated using the cell counting kit-8 assay. Briefly, a total of 5 × 10^3 cells/well (A549, HepG2, PC3, or MDCK cells) were seeded into 96-well plates for 12 h, and the cells were treated with various concentrations of the isolated compounds (0.01–100 μM, double dilution method) for 24 h. The original medium was removed, 10% of the cell counting kit-8 in PBS was added to each well, and the plates were incubated for 2 h. The absorbance was measured at 540 nm using an enzyme-linked immunosorbent assay (ELISA) plate reader.
(§3) All experiments were carried out in triplicate, and each experiment was repeated three times. Data analysis was carried out using SPSS statistical package version 18.0 (SPSS, Inc., Armonk, NY, USA). The IC50 values (the concentration of drug necessary to induce 50% inhibition) were measured for all of the tested drugs using the Probit test in the SPSS software. The cell cycle distribution values of mean and standard deviation (mean ± SD) and 95% confidence intervals (CI) of means to verify the statistical significance of all parameters were calculated. The p-values of < 0.05 were adopted as statistically significant. All data are presented in this report as means ± SD of three replicates from three separate experiments.

HepG2 cells [1] = experiment: Cytotoxicity, cell counting kit-8 assay, HepG2; format: cell-based; conditions: Homo sapiens, 24 h treatment, mean n = 3
Method: as §1, §2, §3

PC3 cells = experiment: Cytotoxicity, cell counting kit-8 assay, PC3; format: cell-based; conditions: Homo sapiens, PC-3, mean n = 3
Method: as §1, §2, §3

A549 cells = experiment: Cytotoxicity, cell counting kit-8 assay, A549; format: cell-based; conditions: Homo sapiens, mean n = 3
Method: as §1, §2, §3

HepG2 cells [2] = experiment: Cell cycle distribution analysis by flow cytometry (PI staining); format: cell-based, human; conditions: for G1 (%) / G2-M (%) / S (%) / sub G1 (%): 24 h, HepG2, mean ± SD
Method: Stock solutions of 4-acetylantrocamol LT3 (20 mM) were prepared by dissolving them in DMSO, and appropriate working dilutions were prepared with the cell culture medium prior to the experiments. For cell cycle distribution analysis, HepG2 cells were treated with DMSO (control) and 4-acetylantrocamol LT3 for 24 h. The cells were then fixed in ice-cold 70% methanol for overnight. After an additional wash with PBS, the cell pellets were stained with 1 mL of propidium iodide (PI) staining solution containing 200 μg of PI in 1 mL of PBS containing 2 mg of DNase free RNase for 30 min. Acquisition and analysis were performed by flow cytometry (FACSCalibur flow cytometer, Becton, Dickinson and Co., Franklin Lakes, NJ, USA) with excitation at 488 nm. Data on each sample represent the percentage of cells in the sub-G1, G1, S, G2/M phases of the cell cycle, respectively.
as §3

[3] = test system: A549, HepG2, and PC3 cell lines; experiment: Cytotoxicity against three human cancer cell lines (summary statements); format: cell-based; conditions: in words
Method: as §1, §2, §3

Compound | IC50 (MDCK cells) | IC50 (HepG2 cells [1]) | IC50 (PC3 cells; 24 h treatment) | IC50 (A549 cells; A549, 24 h, 24 h treatment) | further results
COC1=CC(=O)C(CC=C(C)CCC=C(C)CCC=C(C)C)=C(C)C1=O [Compound 1, 5-methoxy-3-methyl-2-(3,7,11-trimethyldodeca-2,6,10-trienyl)cyclohexa-2,5-diene-1,4-dione] | > 100 µM | > 100 µM | 14 nM | 382 nM | 
COC1=C(OC)[C@H](OC(C)=O)[C@H](C/C=C(\C)CC/C=C(\C)C/C=C/C(C)(C)O)[C@@H](C)C1=O [Compound 2, 4-acetylantrocamol LT3] | > 100 µM | 0.128 µM | 4280 nM | 27 nM | G1 (%) (HepG2 cells [2]; 1 μM): 37.4 ± 4.2%; G2-M (%) (HepG2 cells [2]; 1 μM): 33.6 ± 4.7%; S (%) (HepG2 cells [2]; 1 μM): 15.4 ± 1.6%; sub G1 (%) (HepG2 cells [2]; 1 μM): 6.0 ± 0.7%; G1 (%) (HepG2 cells [2]; 10 μM): 32.9 ± 2.4%; G2-M (%) (HepG2 cells [2]; 10 μM): 33.6 ± 5.6%; S (%) (HepG2 cells [2]; 10 μM): 19.3 ± 4.9%; sub G1 (%) (HepG2 cells [2]; 10 μM): 9.2 ± 2.1%; sub-G1 phase accumulation compared with control cells (HepG2 cells [2]; HepG2, 24 h, dose dependent): 4–7 fold
COC1=C(OC)C(=O)C(C/C=C(\C)CC/C=C(\C)CCC=C(C)C)=C(C)C1=O [Compound 3, quinone Q3] | > 100 µM | > 100 µM | 60 nM | 4160 nM | 
COC1=C(OC)[C@H](O)[C@H](C/C=C(\C)CC/C=C(\C)C/C=C/C(C)(C)O)[C@@H](C)C1=O [Compound 4, antrocamol LT3] | > 100 µM | 0.106 µM | 1 nM |  | 
COC1=C(OC)[C@H](O)[C@H](C/C=C(\C)CC/C=C(\C)CCC=C(C)C)[C@@H](C)C1=O [Compound 5, antroquinonol] | 10.5 µM | 0.044 µM | 73 nM | 421 nM | 
COC1=C(OC)[C@H](OC(C)=O)[C@H](C/C=C(\C)CC/C=C(\C)CCC=C(C)C)[C@@H](C)C1=O [Compound 6, 4-acetylantroquinonol] | 41.6 µM | 0.075 µM | 2320 nM | 611 nM | 
COC1=C(OC)[C@H](O)[C@H](C/C=C(\C)CC/C=C(\C)C[C@H]2C[C@@H](C)C(=O)O2)[C@@H](C)C1=O [Compound 7, antroquinonol B] | > 100 µM | 21.4 µM | 1030 nM | 6030 nM | 
COC1=C(OC)[C@H](OC(C)=O)[C@H](C/C=C(\C)CC/C=C(\C)C[C@H]2C[C@@H](C)C(=O)O2)[C@@H](C)C1=O [Compound 8, 4-acetylantroquinonol B] | > 100 µM | > 100 µM | 20300 nM | 35900 nM | 
COc1cc(C)c(OC)c2c1OCO2 [Compound 9, 4,7-dimethoxy-5-methyl-1,3-benzodioxole] | > 100 µM | > 100 µM | 13300 nM | > 100000 nM | activity against the cancer cell lines [3]: poor activity
COc1cc(C)c(O)c(OC)c1O [Compound 10, 2,4-dimethoxy-6-methyl-benzene-1,3-diol] | > 100 µM | > 100 µM | > 100000 nM | > 100000 nM | activity against the cancer cell lines [3]: poor activity
CC(C)=CCOc1ccc(C2=C(CC(C)C)C(=O)OC2=O)cc1 [Compound 11, antrodin A] | > 100 µM | 90.4 µM | > 100000 nM | > 100000 nM | activity against the cancer cell lines [3]: poor activity
CC(=O)O[C@H]1C(=O)[C@@]2(C)[C@H]([C@H](OC(=O)c3ccccc3)[C@]3(O)C[C@H](OC(=O)[C@H](O)[C@@H](NC(=O)c4ccccc4)c4ccccc4)C(C)=C1C3(C)C)[C@]1(OC(C)=O)CO[C@@H]1C[C@@H]2O [Taxol, reference compound] |  |  |  |  | IC50 (PC3 cells; positive control, unit given in row label): 0.461 nM; IC50 (A549 cells; A549, positive control, unit given in row label): 0.354 nM
COc1cc([C@@H]2c3cc4c(cc3[C@@H](O[C@@H]3O[C@@H]5CO[C@@H](C)O[C@H]5[C@H](O)[C@H]3O)[C@H]3COC(=O)[C@H]23)OCO4)cc(OC)c1O [Vepesid, reference compound] |  | 4.05 µM |  |  | 
